Measured values as given in ChEMBL document CHEMBL4417633, “Inhibitory polypeptides specific to WNT inhibitors” (2017).
Where a SMILES comes first, the peptide text is derived from it.

Tests used:
[1] = target: T1, Dickkopf-related protein 1 (Homo sapiens, UniProt O94907); experiment: Inhibition of biotin-labeled human recombinant DKK1 assessed as reduction in DKK1 interaction with LRP-6/Fc incubated overnight by chemiluminescence based Alpha-screen assay
T1 sequence (O94907 whole entry): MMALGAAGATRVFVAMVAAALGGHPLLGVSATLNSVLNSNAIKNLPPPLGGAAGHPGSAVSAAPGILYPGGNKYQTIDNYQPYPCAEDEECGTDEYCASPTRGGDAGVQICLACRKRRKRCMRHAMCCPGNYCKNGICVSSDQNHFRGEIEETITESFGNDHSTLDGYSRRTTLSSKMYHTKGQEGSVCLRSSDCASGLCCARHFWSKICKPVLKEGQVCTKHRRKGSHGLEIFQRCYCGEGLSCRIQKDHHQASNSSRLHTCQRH

[2] = target: T2, Dickkopf WNT-signaling pathway inhibitor 1 (Rattus norvegicus, UniProt A6I0Z0); experiment: Inhibition of biotin-labeled rat recombinant DKK1 assessed as reduction in DKK1 interaction with LRP-6/Fc incubated overnight by chemiluminescence based Alpha-screen assay
T2 sequence (A6I0Z0 whole entry): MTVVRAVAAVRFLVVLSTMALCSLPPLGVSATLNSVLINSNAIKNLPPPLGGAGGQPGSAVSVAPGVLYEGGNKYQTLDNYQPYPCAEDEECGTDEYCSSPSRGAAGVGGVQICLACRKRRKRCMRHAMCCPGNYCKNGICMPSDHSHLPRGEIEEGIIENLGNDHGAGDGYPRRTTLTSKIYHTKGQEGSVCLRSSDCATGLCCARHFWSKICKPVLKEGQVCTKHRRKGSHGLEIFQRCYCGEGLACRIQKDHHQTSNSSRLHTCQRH

| SMILES | IC50 [1] | IC50 [2] |
| --- | --- | --- |
| CSCC[C@H](NC(=O)[C@@H]1CCCN1C(=O)[C@H](Cc1ccc(O)cc1)NC(=O)[C@H](CS)NC(=O)[C@H](Cc1cnc[nH]1)NC(=O)[C@H](CC(N)=O)NC(=O)[C@H](Cc1ccc(O)cc1)NC(=O)[C@H](CC(N)=O)NC(=O)CNC(=O)[C@H](CS)NC(=O)[C@H](CCC(N)=O)NC(=O)[C@H](Cc1ccccc1)NC(=O)[C@H](Cc1ccc(O)cc1)NC(=O)[C@H](CO)NC(=O)[C@H](C)NC(=O)[C@@H]1CCCN1C(=O)[C@@H](N)CS)C(=O)N[C@@H](CCC(=O)O)C(=O)N[C@@H](Cc1c[nH]c2ccccc12)C(=O)N[C@@H](CCCNC(=N)N)C(=O)N[C@@H](CS)C(=O)N[C@@H](CC(=O)O)C(=O)NCC(=O)N[C@@H](Cc1ccccc1)C(=O)N[C@@H](CC(C)C)C(=O)N[C@@H](CC(=O)O)C(=O)N[C@@H](CS)C(=O)N[C@H](C(=O)N[C@@H](CC(=O)O)C(=O)NCC(=O)N[C@@H](CO)C(=O)N[C@@H](CC(=O)O)C(=O)N[C@@H](CCC(=O)O)C(=O)N[C@@H](CCCCN)C(=O)NCC(=O)N[C@@H](CS)C(=O)N1CCC[C@H]1C(=O)N[C@@H](Cc1ccc(O)cc1)C(=O)N[C@@H](CCCNC(=N)N)C(=O)N[C@H](C(=O)O)[C@@H](C)O)C(C)C (H-CPASYFQCGNYNHCYPMEWRCDGFLDCVDGSDEKGCPYRT-OH) | ≤ 1 nM | ≤ 1 nM |
| CSCC[C@H](NC(=O)[C@@H]1CCCN1C(=O)[C@H](Cc1ccc(O)cc1)NC(=O)[C@H](CS)NC(=O)[C@H](Cc1cnc[nH]1)NC(=O)[C@@H]1CCCN1C(=O)[C@H](Cc1cnc[nH]1)NC(=O)[C@H](CC(N)=O)NC(=O)[C@H](CCCNC(=N)N)NC(=O)[C@H](CS)NC(=O)[C@H](CCC(N)=O)NC(=O)[C@H](Cc1ccccc1)NC(=O)[C@H](Cc1ccc(O)cc1)NC(=O)[C@H](CO)NC(=O)[C@H](C)NC(=O)[C@@H]1CCCN1C(=O)[C@@H](N)CS)C(=O)N[C@@H](CCC(=O)O)C(=O)N[C@@H](Cc1c[nH]c2ccccc12)C(=O)N[C@@H](CCCNC(=N)N)C(=O)N[C@@H](CS)C(=O)N[C@@H](CC(=O)O)C(=O)NCC(=O)N[C@@H](Cc1ccccc1)C(=O)N1CCC[C@H]1C(=O)N[C@@H](CC(=O)O)C(=O)N[C@@H](CS)C(=O)N[C@H](C(=O)N[C@@H](CC(=O)O)C(=O)NCC(=O)N[C@@H](CO)C(=O)N[C@@H](CC(=O)O)C(=O)N[C@@H](CCC(=O)O)C(=O)N[C@@H](CCCCN)C(=O)NCC(=O)N[C@@H](CS)C(=O)N1CCC[C@H]1C(=O)N[C@@H](Cc1ccc(O)cc1)C(=O)N[C@@H](CCCNC(=N)N)C(=O)N[C@H](C(=O)O)[C@@H](C)O)C(C)C (H-CPASYFQCRNHPHCYPMEWRCDGFPDCVDGSDEKGCPYRT-OH) | ≤ 1 nM | ≤ 1 nM |
| CSCC[C@H](NC(=O)[C@@H]1CCCN1C(=O)[C@H](Cc1ccc(O)cc1)NC(=O)[C@H](CS)NC(=O)[C@H](Cc1cnc[nH]1)NC(=O)[C@H](CC(N)=O)NC(=O)[C@H](Cc1ccc(O)cc1)NC(=O)[C@H](CC(N)=O)NC(=O)[C@H](CCCNC(=N)N)NC(=O)[C@H](CS)NC(=O)[C@H](CCCCN)NC(=O)[C@H](Cc1ccccc1)NC(=O)[C@H](Cc1ccc(O)cc1)NC(=O)[C@H](CO)NC(=O)[C@H](C)NC(=O)[C@@H]1CCCN1C(=O)[C@@H](N)CS)C(=O)N[C@@H](CCC(=O)O)C(=O)N[C@@H](Cc1c[nH]c2ccccc12)C(=O)N[C@@H](CCCNC(=N)N)C(=O)N[C@@H](CS)C(=O)N[C@@H](CC(=O)O)C(=O)NCC(=O)N[C@@H](Cc1ccccc1)C(=O)N[C@@H](CCCNC(=N)N)C(=O)N[C@@H](CC(=O)O)C(=O)N[C@@H](CS)C(=O)N[C@@H](CCC(=O)O)C(=O)N[C@@H](CC(=O)O)C(=O)NCC(=O)N[C@@H](CO)C(=O)N[C@@H](CC(=O)O)C(=O)N[C@@H](CCC(=O)O)C(=O)N[C@@H](CCC(=O)O)C(=O)NCC(=O)N[C@@H](CS)C(=O)N1CCC[C@H]1C(=O)N[C@@H](Cc1ccc(O)cc1)C(=O)N[C@@H](CCCNC(=N)N)C(=O)N[C@H](C(=O)O)[C@@H](C)O (H-CPASYFKCRNYNHCYPMEWRCDGFRDCEDGSDEEGCPYRT-OH) | ≤ 1 nM | ≤ 1 nM |
| CSCC[C@H](NC(=O)[C@@H]1CCCN1C(=O)[C@H](Cc1ccc(O)cc1)NC(=O)[C@H](CS)NC(=O)[C@H](Cc1cnc[nH]1)NC(=O)[C@H](CCCCN)NC(=O)[C@H](Cc1ccc(O)cc1)NC(=O)[C@H](CC(N)=O)NC(=O)CNC(=O)[C@H](CS)NC(=O)[C@H](CCC(N)=O)NC(=O)[C@H](Cc1ccccc1)NC(=O)[C@H](Cc1ccc(O)cc1)NC(=O)[C@H](CO)NC(=O)[C@H](C)NC(=O)[C@@H]1CCCN1C(=O)[C@@H](N)CS)C(=O)N[C@@H](CCC(=O)O)C(=O)N[C@@H](Cc1c[nH]c2ccccc12)C(=O)N[C@@H](Cc1cnc[nH]1)C(=O)N[C@@H](CS)C(=O)N[C@@H](CC(=O)O)C(=O)NCC(=O)N[C@@H](Cc1ccccc1)C(=O)N[C@@H](CCC(N)=O)C(=O)N[C@@H](CC(=O)O)C(=O)N[C@@H](CS)C(=O)N[C@H](C(=O)N[C@@H](CC(=O)O)C(=O)NCC(=O)N[C@@H](CO)C(=O)N[C@@H](CC(=O)O)C(=O)N[C@@H](CCC(=O)O)C(=O)N[C@@H](CCCCN)C(=O)N[C@@H](C)C(=O)N[C@@H](CS)C(=O)N1CCC[C@H]1C(=O)N[C@@H](Cc1ccc(O)cc1)C(=O)N[C@@H](CCCNC(=N)N)C(=O)N[C@H](C(=O)O)[C@@H](C)O)C(C)C (H-CPASYFQCGNYKHCYPMEWHCDGFQDCVDGSDEKACPYRT-OH) | ≤ 1 nM | ≤ 1 nM |

Now from value to molecule:

| IC50 [1] | IC50 [2] | SMILES |
| --- | --- | --- |
| ≤ 1 nM | ≤ 1 nM | CSCC[C@H](NC(=O)[C@@H]1CCCN1C(=O)[C@H](Cc1ccc(O)cc1)NC(=O)[C@H](CS)NC(=O)[C@H](Cc1cnc[nH]1)NC(=O)[C@H](CC(N)=O)NC(=O)[C@H](CCCNC(=N)N)NC(=O)[C@H](Cc1cnc[nH]1)NC(=O)[C@H](CCCNC(=N)N)NC(=O)[C@H](CS)NC(=O)[C@H](CCCCN)NC(=O)[C@H](Cc1ccccc1)NC(=O)[C@H](Cc1ccc(O)cc1)NC(=O)[C@H](CO)NC(=O)[C@@H](NC(=O)[C@@H]1CCCN1C(=O)[C@@H](N)CS)C(C)C)C(=O)N[C@@H](CCC(=O)O)C(=O)N[C@@H](Cc1c[nH]c2ccccc12)C(=O)N[C@@H](CCCNC(=N)N)C(=O)N[C@@H](CS)C(=O)N[C@@H](CC(=O)O)C(=O)NCC(=O)N[C@@H](Cc1ccccc1)C(=O)N1CCC[C@H]1C(=O)N[C@@H](CC(=O)O)C(=O)N[C@@H](CS)C(=O)N[C@@H](CC(=O)O)C(=O)N[C@@H](CC(=O)O)C(=O)NCC(=O)N[C@@H](CO)C(=O)N[C@@H](CC(=O)O)C(=O)N[C@@H](CCC(=O)O)C(=O)N[C@@H](CCCNC(=N)N)C(=O)NCC(=O)N[C@@H](CS)C(=O)N1CCC[C@H]1C(=O)N[C@@H](Cc1ccc(O)cc1)C(=O)N[C@@H](CCCNC(=N)N)C(=O)N[C@H](C(=O)O)[C@@H](C)O (H-CPVSYFKCRHRNHCYPMEWRCDGFPDCDDGSDERGCPYRT-OH) |
| ≤ 1 nM | ≤ 1 nM | CSCC[C@H](NC(=O)[C@@H]1CCCN1C(=O)[C@H](Cc1ccc(O)cc1)NC(=O)[C@H](CS)NC(=O)[C@H](Cc1cnc[nH]1)NC(=O)[C@H](CC(N)=O)NC(=O)[C@H](Cc1ccc(O)cc1)NC(=O)[C@H](CC(N)=O)NC(=O)[C@H](CCCNC(=N)N)NC(=O)[C@H](CS)NC(=O)[C@H](CCC(N)=O)NC(=O)[C@H](Cc1ccccc1)NC(=O)[C@H](Cc1ccc(O)cc1)NC(=O)[C@H](CO)NC(=O)[C@H](C)NC(=O)[C@@H]1CCCN1C(=O)[C@@H](N)CS)C(=O)N[C@@H](CCC(=O)O)C(=O)N[C@@H](Cc1c[nH]c2ccccc12)C(=O)N[C@@H](CCCNC(=N)N)C(=O)N[C@@H](CS)C(=O)N[C@@H](CC(=O)O)C(=O)NCC(=O)N[C@@H](Cc1ccccc1)C(=O)N[C@@H](CCC(=O)O)C(=O)N[C@@H](CC(=O)O)C(=O)N[C@@H](CS)C(=O)N[C@@H](CC(C)C)C(=O)N[C@@H](CC(=O)O)C(=O)NCC(=O)N[C@@H](CO)C(=O)N[C@@H](CC(=O)O)C(=O)N[C@@H](CCC(=O)O)C(=O)N[C@H](C(=O)N[C@@H](CC(=O)O)C(=O)N[C@@H](CS)C(=O)N1CCC[C@H]1C(=O)N[C@@H](Cc1ccc(O)cc1)C(=O)N[C@@H](CCCNC(=N)N)C(=O)N[C@H](C(=O)O)[C@@H](C)O)[C@@H](C)O (H-CPASYFQCRNYNHCYPMEWRCDGFEDCLDGSDETDCPYRT-OH) |
| ≤ 1 nM | ≤ 1 nM | CSCC[C@H](NC(=O)[C@@H]1CCCN1C(=O)[C@H](Cc1ccc(O)cc1)NC(=O)[C@H](CS)NC(=O)[C@H](Cc1cnc[nH]1)NC(=O)[C@H](CCCCN)NC(=O)[C@H](CC(N)=O)NC(=O)[C@H](Cc1cnc[nH]1)NC(=O)[C@H](CCCNC(=N)N)NC(=O)[C@H](CS)NC(=O)[C@H](CCC(N)=O)NC(=O)[C@H](Cc1ccccc1)NC(=O)[C@H](Cc1ccc(O)cc1)NC(=O)[C@H](CO)NC(=O)[C@H](C)NC(=O)[C@@H]1CCCN1C(=O)[C@@H](N)CS)C(=O)N[C@@H](CCC(=O)O)C(=O)N[C@@H](Cc1c[nH]c2ccccc12)C(=O)N[C@@H](CCCNC(=N)N)C(=O)N[C@@H](CS)C(=O)N[C@@H](CC(=O)O)C(=O)NCC(=O)N[C@@H](Cc1ccccc1)C(=O)N1CCC[C@H]1C(=O)N[C@@H](CC(=O)O)C(=O)N[C@@H](CS)C(=O)N[C@@H](CCC(=O)O)C(=O)N[C@@H](CC(=O)O)C(=O)NCC(=O)N[C@@H](CO)C(=O)N[C@@H](CC(=O)O)C(=O)N[C@@H](CCC(=O)O)C(=O)N[C@@H](CC(C)C)C(=O)N[C@@H](CO)C(=O)N[C@@H](CS)C(=O)N1CCC[C@H]1C(=O)N[C@@H](Cc1ccc(O)cc1)C(=O)N[C@@H](CCCNC(=N)N)C(=O)N[C@H](C(=O)O)[C@@H](C)O (H-CPASYFQCRHNKHCYPMEWRCDGFPDCEDGSDELSCPYRT-OH) |
